Laboratory results: US6737383B1, “Herbicidal oxadiazolidines” (priority 1999, dated 2004)

Key:
[1] = tested on: surinam grass; test: Test B pre/postemergence surinam grass; type: in vivo, Brachiaria decumbens
Procedure, shortened: (§1)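 Response is a visual 0-to-10 score relative to untreated plants, where 0 means no effect and 10 means complete control, taken twelve to sixteen days after application. Treatments went onto soil at planting and onto foliage of 1- to 4-leaf plants, using a surfactant-containing non-phytotoxic solvent.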

[2] = tested on: sugar beet; test: Test B pre/postemergence sugar beet; type: in vivo, Beta vulgaris
Procedure, shortened: as §1

[3] = tested on: velvetleaf; test: Test B pre/postemergence velvetleaf; type: in vivo, Abutilon theophrasti
Procedure, shortened: as §1

[4] = tested on: rice; test: Test B flood test rice; type: in vivo, Oryza sativa
Procedure, shortened: (§2)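 Flood test on plants grown to the 2-leaf stage; treated plants kept in greenhouse twelve to sixteen days, then visually rated against controls on a 0 (no effect) to 10 (complete control) scale.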

[5] = tested on: bedstraw; test: Test B pre/postemergence bedstraw; type: in vivo, Galium aparine
Procedure, shortened: as §1

[6] = tested on: wild oat; test: Test B pre/postemergence wild oat; type: in vivo, Avena fatua
Procedure, shortened: as §1

[7] = tested on: morningglory; test: Test B pre/postemergence morningglory; type: in vivo, Ipomoea hederacea
Procedure, shortened: as §1

[8] = tested on: pigweed; test: Test B pre/postemergence pigweed; type: in vivo, Amaranthus retroflexus
Procedure, shortened: as §1

[9] = tested on: corn; test: Test B pre/postemergence corn; type: in vivo, Zea mays
Procedure, shortened: as §1

[10] = tested on: smallflower flatsedge; test: Test B flood test smallflower flatsedge; type: in vivo, Cyperus difformis
Procedure, shortened: as §2

[11] = tested on: bamyardgrass; test: Test B flood test barnyardgrass; type: in vivo, Echinochloa crus-galli
Procedure, shortened: as §2

[12] = tested on: rape; test: Test B pre/postemergence rape; type: in vivo, Brassica napus
Procedure, shortened: as §1

[13] = tested on: soybean; test: Test B pre/postemergence soybean; type: in vivo, Glycine max
Procedure, shortened: as §1

[14] = tested on: cocklebur; test: Test B pre/postemergence cocklebur; type: in vivo, Xanthium strumarium
Procedure, shortened: as §1

[15] = tested on: crabgrass; test: Test B pre/postemergence crabgrass; type: in vivo, Digitaria sanguinalis
Procedure, shortened: as §1

[16] = tested on: duck salad; test: Test B flood test duck salad; type: in vivo, Heteranthera limosa
Procedure, shortened: as §2

[17] = Postemergence, Rate 62 g/ha, scale 0 to 10, 0 is no effect, 10 is complete control
[18] = Postemergence, Rate 250 g/ha, scale 0 to 10, 0 no effect, 10 complete control
[19] = Preemergence, Rate 31 g/ha, visual rating, scale 0 to 10 (0 no effect, 10 complete control)
[20] = Preemergence, Rate 62 g/ha, scale 0 to 10, 0 is no effect, 10 is complete control
[21] = Preemergence, Rate 125 g/ha, scale 0 to 10 (0 no effect, 10 complete control)
[22] = Preemergence, Rate 250 g/ha, scale of 0 to 10 where 0 is no effect and 10 is complete control
[23] = Rate 31 g/ha, Postemergence, scale 0 to 10
[24] = Rate 125 g/ha, Postemergence, scale 0 to 10, 0 no effect, 10 complete control
[25] = Rate 125 g/ha, Postemergence section (flood test species), scale 0 to 10, 0 no effect, 10 complete control
[26] = Rate 500 g/ha, Postemergence section of Table B, 0 to 10 scale (0 no effect, 10 complete control)
[27] = flood test, listed under Postemergence, Rate 250 g/ha, scale 0 to 10, 0 no effect, 10 complete control

## CCN(C(=O)n1oc(=O)n(-c2ccccc2OC)c1=O)C1CCCCC1 [Compound 29]
[1]; [17]
  B. signalgrass plant response rating: 0
[1]; [18]
  B. signalgrass plant response rating: 0
[1]; [19]
  B. signalgrass plant response rating: 0
[1]; [20]
  Plant response rating, B. signalgrass: 0
[1]; [21]
  Plant response rating, B. signalgrass: 0
[1]; [22]
  Plant response rating, B. signalgrass: 0
[1]; [23]
  B. signalgrass plant response rating: 0
[1]; [24]
  B. signalgrass plant response rating: 0
[2]; [17]
  Sugarbeets plant response rating: 0
[2]; [18]
  Sugarbeets plant response rating: 0
[2]; [19]
  Sugarbeets plant response rating: 0
[2]; [20]
  Plant response rating, Sugarbeets: 0
[2]; [21]
  Plant response rating, Sugarbeets: 0
[2]; [22]
  Plant response rating, Sugarbeets: 0
[2]; [24]
  Sugarbeets plant response rating: 0
[3]; [17]
  Velvetleaf plant response rating: 0
[3]; [18]
  Velvetleaf plant response rating: 0
[3]; [19]
  Velvetleaf plant response rating: 0
[3]; [20]
  Plant response rating, Velvetleaf: 0
[3]; [21]
  Plant response rating, Velvetleaf: 0
[3]; [22]
  Plant response rating, Velvetleaf: 0
[3]; [24]
  Velvetleaf plant response rating: 0
[4]; [17]
  Rice plant response rating: 0
[4]; [25]
  Rice plant response rating: 0
[4]; [26]
  Rice plant response rating: 0
[4]; [27]
  Rice plant response rating: 0
[5]; [17]
  Bedstraw plant response rating: 0
[5]; [18]
  Bedstraw plant response rating: 0
[5]; [19]
  Bedstraw plant response rating: 0
[5]; [20]
  Plant response rating, Bedstraw: 0
[5]; [21]
  Plant response rating, Bedstraw: 0
[5]; [22]
  Plant response rating, Bedstraw: 0
[5]; [23]
  Bedstraw plant response rating: 0
[5]; [24]
  Bedstraw plant response rating: 0
[6]; [17]
  Wild oats plant response rating: 0
[6]; [18]
  Wild oats plant response rating: 0
[6]; [19]
  Wild oats plant response rating: 0
[6]; [21]
  Plant response rating, Wild oats: 0
[6]; [22]
  Plant response rating, Wild oats: 0
[6]; [24]
  Wild oats plant response rating: 0
[7]; [17]
  Morningglory plant response rating: 0
[7]; [18]
  Morningglory plant response rating: 0
[7]; [19]
  Morningglory plant response rating: 0
[7]; [20]
  Plant response rating, Morningglory: 0
[7]; [21]
  Plant response rating, Morningglory: 0
[7]; [22]
  Plant response rating, Morningglory: 0
[7]; [23]
  Morningglory plant response rating: 0
[7]; [24]
  Morningglory plant response rating: 0
[8]; [17]
  Redroot pigweed plant response rating: 0
[8]; [18]
  Redroot pigweed plant response rating: 0
[8]; [19]
  Redroot pigweed plant response rating: 0
[8]; [20]
  Plant response rating, Redroot pigweed: 0
[8]; [21]
  Plant response rating, Redroot pigweed: 0
[8]; [22]
  Plant response rating, Redroot pigweed: 5
[8]; [23]
  Redroot pigweed plant response rating: 0
[8]; [24]
  Redroot pigweed plant response rating: 0
[9]; [17]
  Corn plant response rating: 0
[9]; [18]
  Corn plant response rating: 0
[9]; [19]
  Corn plant response rating: 0
[9]; [20]
  Plant response rating, Corn: 0
[9]; [21]
  Plant response rating, Corn: 0
[9]; [22]
  Plant response rating, Corn: 0
[9]; [23]
  Corn plant response rating: 0
[9]; [24]
  Corn plant response rating: 0
[10]; [17]
  S. Flatsedge plant response rating: 0
[10]; [25]
  S. Flatsedge plant response rating: 0
[10]; [27]
  S. Flatsedge plant response rating: 0
[11]; [17]
  Barnyardgrass plant response rating: 0
[11]; [25]
  Barnyardgrass plant response rating: 0
[11]; [26]
  Barnyardgrass plant response rating: 0
[11]; [27]
  Barnyardgrass plant response rating: 0
[12]; [17]
  Rape plant response rating: 0
[12]; [18]
  Rape plant response rating: 0
[12]; [19]
  Rape plant response rating: 0
[12]; [20]
  Plant response rating, Rape: 0
[12]; [21]
  Plant response rating, Rape: 0
[12]; [22]
  Plant response rating, Rape: 0
[12]; [23]
  Rape plant response rating: 0
[12]; [24]
  Rape plant response rating: 0
[13]; [17]
  Soybean plant response rating: 2
[13]; [18]
  Soybean plant response rating: 2
[13]; [19]
  Soybean plant response rating: 0
[13]; [20]
  Plant response rating, Soybean: 0
[13]; [21]
  Plant response rating, Soybean: 0
[13]; [22]
  Plant response rating, Soybean: 0
[13]; [24]
  Soybean plant response rating: 2
[14]; [17]
  Cocklebur plant response rating: 0
[14]; [18]
  Cocklebur plant response rating: 0
[14]; [19]
  Cocklebur plant response rating: 0
[14]; [20]
  Plant response rating, Cocklebur: 0
[14]; [21]
  Plant response rating, Cocklebur: 0
[14]; [22]
  Plant response rating, Cocklebur: 0
[14]; [23]
  Cocklebur plant response rating: 0
[14]; [24]
  Cocklebur plant response rating: 0
[15]; [17]
  Crabgrass plant response rating: 0
[15]; [18]
  Crabgrass plant response rating: 0
[15]; [19]
  Crabgrass plant response rating: 0
[15]; [20]
  Plant response rating, Crabgrass: 3
[15]; [21]
  Plant response rating, Crabgrass: 4
[15]; [22]
  Plant response rating, Crabgrass: 7
[15]; [23]
  Crabgrass plant response rating: 0
[15]; [24]
  Crabgrass plant response rating: 0
[16]; [17]
  Ducksalad plant response rating: 0
[16]; [25]
  Ducksalad plant response rating: 0
[16]; [26]
  Ducksalad plant response rating: 0
[16]; [27]
  Ducksalad plant response rating: 0
